Experimental findings from US6745512B1 (priority 1990, dated 2004) are described below.

In the test the test system is harmful organisms such as smut (Ustilago nuda), Fusaria and Septoria nodorum. The experiment in a line: combined use of low energy electrons with subsequent fungicidal treatment of the seeds. As to conditions: low energy electrons followed by fungicidal treatment of the seeds; 15 g, 30 g/100 kg seeds.

On to `Cc1oc(C)c(C(=O)Nc2ccccc2)c1C` [Methfuroxam], for which the harmful organisms combated lay within 95 to 100%.
